According to the NIST ThermoML archive (doi:10.1021/je060291c):
Several values for one entry are separate records, joined by “and”; a condition that tells them apart may be missing. Equal entries are not always repeated. ± gives the expanded uncertainty stated by the source.

Test: wn = mass fraction of the nth substance listed
Conditions: Liquid, Pulse-echo method, w2 = 0.49

CC(F)(F)F [1,1,1-trifluoroethane] + FC(F)C(F)(F)F
speed of sound
Conditions | 288.18 K | 298.19 K | 308.19 K | 318.2 K | 328.17 K | 338.18 K
1290 kPa | – | 375.4 ± 1.3 m/s | – | – | – | –
1300 kPa | – | 375.4 ± 1.3 m/s and 375.5 ± 1.3 m/s | – | – | – | –
1360 kPa | – | 376.9 ± 1.3 m/s | – | – | – | –
1510 kPa | – | 379.6 ± 1.3 m/s | – | – | – | –
1630 kPa | – | 381.8 ± 1.3 m/s | – | – | – | –
1670 kPa | – | – | 324.1 ± 1.3 m/s and 324.2 ± 1.3 m/s | – | – | –
1740 kPa | – | – | 326 ± 1.3 m/s | – | – | –
1750 kPa | – | 384.2 ± 1.3 m/s | – | – | – | –
1840 kPa | – | – | 328.4 ± 1.3 m/s | – | – | –
2010 kPa | 440.2 ± 1.3 m/s | 388.7 ± 1.3 m/s | 332.4 ± 1.3 m/s | – | – | –
2120 kPa | – | – | – | 270.3 ± 1.4 m/s | – | –
2180 kPa | – | – | – | 272.6 ± 1.4 m/s | – | –
2250 kPa | 444 ± 1.3 m/s | 393 ± 1.3 m/s | 338 ± 1.3 m/s | 274.9 ± 1.4 m/s | – | –
2360 kPa | – | – | – | 278.2 ± 1.4 m/s | – | –
2510 kPa | 447.4 ± 1.3 m/s | 397.3 ± 1.3 m/s | 343.6 ± 1.3 m/s | 282.9 ± 1.4 m/s | – | –
2660 kPa | – | – | – | – | 211.8 ± 1.4 m/s and 211.9 ± 1.4 m/s | –
2750 kPa | 450.9 ± 1.3 m/s | 401.5 ± 1.3 m/s | 348.9 ± 1.3 m/s | 290.4 ± 1.4 m/s | 216.9 ± 1.4 m/s | –
2880 kPa | – | – | – | – | 223.4 ± 1.4 m/s | –
3010 kPa | 454.3 ± 1.3 m/s | 405.6 ± 1.3 m/s | 354 ± 1.3 m/s | 297.5 ± 1.3 m/s | 229.4 ± 1.4 m/s | –
3380 kPa | – | – | – | – | – | 154.6 ± 1.5 m/s
3440 kPa | – | – | – | – | – | 160.1 ± 1.5 m/s
3500 kPa | 460.9 ± 1.3 m/s | 413.4 ± 1.3 m/s | 363.8 ± 1.3 m/s | 310.3 ± 1.3 m/s | 249.7 ± 1.4 m/s | 165.9 ± 1.5 m/s
3660 kPa | – | – | – | – | – | 178.1 ± 1.5 m/s
3830 kPa | – | – | – | – | – | 189 ± 1.4 m/s
4000 kPa | 467.5 ± 1.3 m/s | 421.1 ± 1.3 m/s | 373.1 ± 1.3 m/s | 322.1 ± 1.3 m/s | 266.3 ± 1.3 m/s | 199.1 ± 1.4 m/s
4250 kPa | – | – | – | – | – | 211.1 ± 1.4 m/s
4500 kPa | 473.5 ± 1.3 m/s | 428.4 ± 1.3 m/s | 381.8 ± 1.3 m/s | 333 ± 1.3 m/s | 280.9 ± 1.3 m/s | 221.8 ± 1.3 m/s
5000 kPa | 479.7 ± 1.3 m/s | 435.4 ± 1.3 m/s | 390.1 ± 1.3 m/s | 343.1 ± 1.3 m/s | 294 ± 1.3 m/s | 240.3 ± 1.3 m/s
6010 kPa | 491.5 ± 1.3 m/s | 448.7 ± 1.3 m/s | 405.6 ± 1.3 m/s | 361.7 ± 1.3 m/s | 316.6 ± 1.3 m/s | 269.8 ± 1.3 m/s
7010 kPa | 502.5 ± 1.3 m/s | 461.1 ± 1.3 m/s | 419.8 ± 1.3 m/s | 378.2 ± 1.3 m/s | 336.3 ± 1.3 m/s | 293.8 ± 1.3 m/s
8000 kPa | 513.1 ± 1.3 m/s | 473 ± 1.3 m/s | 433.3 ± 1.3 m/s | 393.4 ± 1.3 m/s | 353.7 ± 1.3 m/s and 354 ± 1.3 m/s and 353.9 ± 1.3 m/s | 314.4 ± 1.3 m/s
9000 kPa | 523.2 ± 1.3 m/s | 484.3 ± 1.3 m/s | 445.6 ± 1.3 m/s | 407.7 ± 1.3 m/s | 370 ± 1.3 m/s | 333 ± 1.3 m/s
10000 kPa | 532.9 ± 1.3 m/s | 494.9 ± 1.3 m/s | 457.5 ± 1.3 m/s | 420.9 ± 1.3 m/s | 384.7 ± 1.3 m/s | 349.3 ± 1.3 m/s
12000 kPa | 551.3 ± 1.3 m/s | 515.1 ± 1.3 m/s | 479.6 ± 1.3 m/s | 445 ± 1.3 m/s | 411.3 ± 1.3 m/s | 378.7 ± 1.3 m/s
14000 kPa | 568.6 ± 1.3 m/s | 533.7 ± 1.3 m/s | 499.8 ± 1.3 m/s | 466.9 ± 1.3 m/s | 435.1 ± 1.3 m/s | 404.3 ± 1.3 m/s
16010 kPa | 585 ± 1.3 m/s | 551.1 ± 1.3 m/s | 518.5 ± 1.3 m/s | 487 ± 1.3 m/s | 456.6 ± 1.3 m/s | 427.4 ± 1.3 m/s
18000 kPa | 600.2 ± 1.3 m/s | 567.6 ± 1.3 m/s | 536.1 ± 1.3 m/s | 505.5 ± 1.3 m/s | 476.5 ± 1.3 m/s | 448.3 ± 1.3 m/s
20000 kPa | 614.9 ± 1.3 m/s | 583.2 ± 1.3 m/s | 552.6 ± 1.3 m/s | 523 ± 1.3 m/s | 494.7 ± 1.3 m/s | 467.8 ± 1.3 m/s
23000 kPa | 635.8 ± 1.3 m/s | 605.1 ± 1.3 m/s | 575.7 ± 1.3 m/s | 547.4 ± 1.3 m/s | 520.4 ± 1.3 m/s | 494.6 ± 1.3 m/s
26000 kPa | 655.3 ± 1.3 m/s | 625.5 ± 1.3 m/s | 597.3 ± 1.3 m/s | 569.9 ± 1.3 m/s | 543.8 ± 1.3 m/s | 519 ± 1.3 m/s
29010 kPa | 673.8 ± 1.3 m/s | 645.1 ± 1.3 m/s | 617.4 ± 1.3 m/s | 591 ± 1.3 m/s | 565.9 ± 1.3 m/s | 541.7 ± 1.3 m/s
32000 kPa | 691.2 ± 1.3 m/s | 663.2 ± 1.3 m/s | 636.3 ± 1.3 m/s | 610.7 ± 1.3 m/s | 586.4 ± 1.3 m/s | 563 ± 1.3 m/s
35000 kPa | 708.3 ± 1.3 m/s | 680.8 ± 1.3 m/s | 654.6 ± 1.3 m/s and 654.3 ± 1.3 m/s | 629.4 ± 1.3 m/s | 605.5 ± 1.3 m/s and 605.8 ± 1.3 m/s | 583 ± 1.3 m/s
40000 kPa | 734.9 ± 1.3 m/s | 708.2 ± 1.3 m/s | 682.9 ± 1.3 m/s | 658.7 ± 1.3 m/s | 635.7 ± 1.3 m/s | 613.8 ± 1.3 m/s
45000 kPa | 759.7 ± 1.3 m/s | 734 ± 1.3 m/s | 709.3 ± 1.3 m/s | 685.8 ± 1.3 m/s | 663.5 ± 1.3 m/s | 642.4 ± 1.3 m/s
50000 kPa | 783.2 ± 1.3 m/s | 758 ± 1.3 m/s | 734 ± 1.3 m/s | 711.3 ± 1.3 m/s | 689.5 ± 1.3 m/s | 669 ± 1.3 m/s
55000 kPa | 805.1 ± 1.3 m/s | 780.7 ± 1.3 m/s and 780.9 ± 1.3 m/s | 757.3 ± 1.3 m/s and 757.1 ± 1.3 m/s | 734.9 ± 1.3 m/s | 714.1 ± 1.3 m/s | 693.9 ± 1.3 m/s
60000 kPa | 826.3 ± 1.3 m/s | 802.3 ± 1.3 m/s and 802.4 ± 1.3 m/s | 779.5 ± 1.3 m/s | 757.7 ± 1.3 m/s | 737.1 ± 1.3 m/s | 717.2 ± 1.3 m/s
65000 kPa | 846.7 ± 1.3 m/s | 823.1 ± 1.3 m/s | 800.7 ± 1.3 m/s | 779.3 ± 1.3 m/s | 759 ± 1.3 m/s | 739.8 ± 1.3 m/s

Conditions | speed of sound [m/s]
298.19 K | 375.4 ± 1.3
308.19 K | 324.2 ± 1.3
318.2 K | 270.3 ± 1.3
328.17 K | 211.8 ± 1.3
